According to the supplement of paper PMC10307832:

What was measured:
Experiment in all cases: relative viability (nuclei count vs DMSO), 5 days (fraction); higher = more cells survive
Ibrutinib + Dasatinib = compound: C=CC(=O)N1CCC[C@@H](n2nc(-c3ccc(Oc4ccccc4)cc3)c3c(N)ncnc32)C1 [Ibrutinib] + Cc1nc(Nc2ncc(C(=O)Nc3c(C)cccc3Cl)s2)cc(N2CCN(CCO)CC2)n1 [Dasatinib] (partner 0.075 µM)
Method in brief: (§1)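 Relative viability was taken as the ratio of nuclei in treated wells to nuclei in vehicle wells. Lung cancer cell lines in 1536-well plates received compounds by pin tool one day after seeding, either one drug alone or a fixed anchor-drug dose plus five library-drug doses (not always all listed) in √10 steps. Nuclei were counted on 4× images after 5 days of treatment, and values are medians of duplicate plates.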

BMX-IN-1 + AZD7762 = compound: C=CC(=O)Nc1cc(-n2c(=O)ccc3cnc4ccc(-c5ccc(NS(C)(=O)=O)cc5)cc4c32)ccc1C [BMX-IN-1] + NC(=O)Nc1cc(-c2cccc(F)c2)sc1C(=O)N[C@H]1CCCNC1 [AZD7762] (partner 0.2 µM)
Method in brief: as §1

BMX-IN-1 + Pictilisib = compound: C=CC(=O)Nc1cc(-n2c(=O)ccc3cnc4ccc(-c5ccc(NS(C)(=O)=O)cc5)cc4c32)ccc1C [BMX-IN-1] + CS(=O)(=O)N1CCN(Cc2cc3nc(-c4cccc5[nH]ncc45)nc(N4CCOCC4)c3s2)CC1 [Pictilisib] (partner 1 µM)
Method in brief: as §1

BMX-IN-1 + OSI-027 = compound: C=CC(=O)Nc1cc(-n2c(=O)ccc3cnc4ccc(-c5ccc(NS(C)(=O)=O)cc5)cc4c32)ccc1C [BMX-IN-1] + COc1cccc2cc(-c3nc([C@H]4CC[C@H](C(=O)O)CC4)n4ncnc(N)c34)[nH]c12 [OSI-027] (partner 0.5 µM)
Method in brief: as §1

| Cell Line | relative viability (Ibrutinib + Dasatinib; first compound 0.005 µM) | relative viability (Ibrutinib + Dasatinib; first compound 0.01581 µM) | relative viability (Ibrutinib + Dasatinib; first compound 0.05 µM) | relative viability (Ibrutinib + Dasatinib; first compound 0.1581 µM) | relative viability (Ibrutinib + Dasatinib; first compound 0.5 µM) | relative viability (BMX-IN-1 + AZD7762; first compound 0.02 µM) | relative viability (BMX-IN-1 + AZD7762; first compound 0.2 µM) | relative viability (BMX-IN-1 + AZD7762; first compound 0.6325 µM) | relative viability (BMX-IN-1 + AZD7762; first compound 2 µM) | relative viability (BMX-IN-1 + Pictilisib; first compound 0.02 µM) | relative viability (BMX-IN-1 + Pictilisib; first compound 0.2 µM) | relative viability (BMX-IN-1 + Pictilisib; first compound 0.6325 µM) | relative viability (BMX-IN-1 + Pictilisib; first compound 2 µM) | relative viability (BMX-IN-1 + OSI-027; first compound 0.02 µM) | relative viability (BMX-IN-1 + OSI-027; first compound 0.2 µM) | relative viability (BMX-IN-1 + OSI-027; first compound 0.6325 µM) | relative viability (BMX-IN-1 + OSI-027; first compound 2 µM) |
| --- | --- | --- | --- | --- | --- | --- | --- | --- | --- | --- | --- | --- | --- | --- | --- | --- | --- |
| NCI-H2405 | 0.232 | 0.19 | 0.189 | 0.206 | 0.237 | 0.831 | 0.941 | 0.762 | 0.805 | 0.505 | 0.444 | 0.484 | 0.393 | 0.647 | 0.63 | 0.605 | 0.634 |
| EBC-1 | – | – | – | – | – | – | – | – | – | 0.249 | 0.303 | 0.382 | 0.255 | – | – | – | – |
| NCI-H1734 | 0.36 | 0.473 | 0.506 | 0.521 | 0.454 | 0.683 | 0.623 | 0.542 | 0.669 | 0.529 | 0.541 | 0.488 | 0.432 | 0.709 | 0.64 | 0.632 | 0.621 |
| NCI-H1563 | 0.431 | 0.456 | 0.507 | 0.46 | 0.415 | – | – | – | – | 0.601 | 0.629 | 0.655 | 0.684 | 0.838 | 0.757 | 0.697 | 0.642 |
| SW 900 | – | – | 0.683 | 0.554 | 0.578 | 0.656 | 0.636 | 0.735 | 0.666 | – | – | – | – | 0.547 | 0.643 | 0.523 | 0.764 |
| A549 | – | – | – | – | – | – | – | – | – | 0.69 | 0.757 | 0.56 | 0.517 | – | – | – | – |
| NCI-H1299 | – | – | – | – | – | – | – | – | – | 0.838 | 0.934 | 0.906 | 0.563 | – | – | – | – |
| NCI-H1650 | 0.304 | 0.281 | 0.321 | 0.369 | 0.346 | – | – | – | – | 0.776 | 0.675 | 0.705 | 0.548 | 0.69 | 0.544 | 0.84 | 0.606 |
| NCI-H2009 | 0.3 | 0.254 | 0.319 | 0.267 | 0.386 | – | – | – | – | 1.19 | 0.946 | 0.905 | 0.765 | 0.689 | 0.651 | 0.639 | 0.386 |
| COR-L 105 | 0.258 | 0.369 | 0.229 | 0.322 | 0.162 | – | – | – | – | 0.383 | 0.4 | 0.481 | 0.4 | 0.817 | 0.668 | 0.814 | 0.586 |
| UMC-11 | 0.417 | 0.411 | 0.485 | 0.548 | 0.486 | – | – | – | – | 1.07 | 0.922 | 0.892 | 0.912 | 0.571 | 0.578 | 0.491 | 0.488 |
| NCI-H2023 | 0.578 | 0.546 | 0.532 | 0.55 | 0.516 | – | – | – | – | 0.27 | 0.241 | 0.265 | 0.334 | 0.448 | 0.434 | 0.418 | 0.244 |
| Calu-6 | – | – | – | – | – | – | – | – | – | 1.14 | 1.21 | 1.09 | 0.866 | – | – | – | – |
